Patent US20100168102A9, “Amide Derivatives as Kinase Inhibitors” (Devgen NV, priority 2005, published 2010)
Like-named read-outs stand apart in the source and are kept apart here.

Legend:
PKC epsilon = molecular target: T1, PKC epsilon (Homo sapiens, UniProt Q02156); experiment: Biochemical assay for PKC epsilon (fluorescence polarization, Protein Kinase C Assay Kit, Red); conditions: read-out: IC50 μM PKCε
T1 construct: purchased Invitrogen P2282
T1 sequence (Q02156 1-737): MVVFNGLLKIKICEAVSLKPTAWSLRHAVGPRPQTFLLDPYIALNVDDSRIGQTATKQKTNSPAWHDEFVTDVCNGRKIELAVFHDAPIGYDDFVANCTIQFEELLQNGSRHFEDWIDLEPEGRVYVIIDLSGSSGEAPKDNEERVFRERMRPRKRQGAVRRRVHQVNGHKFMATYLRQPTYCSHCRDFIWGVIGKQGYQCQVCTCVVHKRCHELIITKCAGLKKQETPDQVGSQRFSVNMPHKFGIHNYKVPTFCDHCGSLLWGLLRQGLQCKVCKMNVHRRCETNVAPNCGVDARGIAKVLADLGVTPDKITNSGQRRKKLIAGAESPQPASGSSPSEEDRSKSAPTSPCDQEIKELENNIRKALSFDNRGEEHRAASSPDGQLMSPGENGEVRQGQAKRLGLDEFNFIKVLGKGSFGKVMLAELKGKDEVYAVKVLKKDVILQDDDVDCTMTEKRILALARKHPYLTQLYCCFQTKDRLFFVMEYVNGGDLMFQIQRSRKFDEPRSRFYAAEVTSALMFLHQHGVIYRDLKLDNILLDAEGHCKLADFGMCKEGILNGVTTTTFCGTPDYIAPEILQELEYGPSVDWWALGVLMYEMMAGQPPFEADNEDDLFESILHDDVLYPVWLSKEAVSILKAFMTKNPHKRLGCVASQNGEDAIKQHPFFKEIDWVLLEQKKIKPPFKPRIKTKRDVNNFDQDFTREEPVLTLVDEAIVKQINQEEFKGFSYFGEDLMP
Protocol: The compounds were tested for inhibition of PKC epsilon.
The inhibition assays were performed with a fluorescence polarization (FP) assay using the commercially available Protein Kinase C Assay Kit, Red, from Invitrogen (Product ID. No. P2941), essentially in accordance with the protocol supplied by the manufacturer. […] The isozyme PKC epsilon was also obtained from Invitrogen (Product ID No. P2282).
Staurosporine was used as a positive control (2 μM).
To perform the assay, 2 μl of a solution of the compound to be tested in DMSO (at each concentration) was added to 6 μl of a solution of the enzyme in 10 mM HEPES, 5 mM dithiotreitol, 0.1% Triton X-100, pH 7.4. The final concentration of the enzymes was 10 ng/ml.
After incubating for 30 minutes at room temperature, 4 μl of a mixture of ATP and the protein substrate in 60 mM HEPES (pH7.4), 15 mM MgCl2, 0.3 mM CaCl2, 0.06% NP40 was added.
After incubating for 80 minutes at room temperature, 3 μl of a mix solution of 500 mM EDTA (stop solution) and the Rhodamine-based PKC Red Tracer (from the Protein Kinase C Assay Kit) in BGG/phosphate buffer (pH7.4) with 0.02% NaN3 and 0.1% Triton X-100 was added and 5 μl of a the Anti-Phosphoserine antibody (also from the Protein Kinase C Assay Kit) in BGG/phosphate buffer (pH7.4) with 0.02% NaN3.
The results were fitted to a curve using the XL-Fit algorithm and […] were calculated for each fitted curve, again using the XL-Fit algorithm.

human ROCKα/ROCKII mix = molecular target: T2, human ROCKα/ROCKII mix (Homo sapiens, UniProt O75116); experiment: Biochemical assay for ROCK (fluorescence polarization, ROCK IMAP Kit)
T2 construct: purchased Upstate Biotechnology 14-451
Protocol: The compounds were tested for inhibition of human ROCKα/ROCKII mix.
The inhibition assays were performed with a fluorescence polarization (FP) assay using the commercially available ROCK IMAP Kit from Molecular Devices (Product ID. No. R8093), essentially in accordance with the protocol supplied by the manufacturer. […] The enzyme mix ROCKα/ROCKII was obtained from Upstate Biotechnology (Product ID No 14-451).
In summary, the compound was screened in the wells of a 384 well plate for enzymatic inhibition with concentrations varying from 100 μM to 0.3 nM using a stepwise 3 (or 2)-fold dilution.
To perform the assay, 1 μl of a solution of the compound to be tested in DMSO (at each concentration) was added to 2 μl of a solution of the enzyme in 10 mM Tris-HCl , 10 mM MgCl2, 0.1% BSA, 0.05% NaN3, pH 7.2. The final concentration of the enzyme was 2.6 nM.
After incubating for 30 minutes at room temperature, 2 μl of a mixture of ATP and the protein substrate in 10 mM Tris-HCl, 10 mM MgCl2, 0.1% BSA, 0.05% NaN3, pH 7.2 was added. The final concentration of the ATP was 10 μM and final concentration of protein substrate was 0.2 μM.
After incubating for 60 minutes at room temperature, 12 μl of the IMAP Binding Solution (mix of the IMAP Binding Buffer A (1×) and the IMAP Binding Reagent (from the ROCK IMAP kit)) was added.
The mixture thus obtained (total volume: 17 μl) was incubated for 60 minutes at room temperature, upon which the fluorescence polarization was measured using an automated plate reader (Perkin Elmer, Model Envision 2100-0010 HTS) with FP filters: excitation filter FITC FP 480 and emission filters FITC FP P-pol 535 and FITC FP S-pol 535 (Perkin-Elmer). The results were fitted to a curve using the XL-Fit algorithm and IC50 values were calculated for each fitted curve, again using the XL-Fit algorithm.

[1] = compounds of Formula XIV, Table 3
[2] = Table 2, compounds of Formula XIII

T2 sequence (O75116 11-552 limits assumed): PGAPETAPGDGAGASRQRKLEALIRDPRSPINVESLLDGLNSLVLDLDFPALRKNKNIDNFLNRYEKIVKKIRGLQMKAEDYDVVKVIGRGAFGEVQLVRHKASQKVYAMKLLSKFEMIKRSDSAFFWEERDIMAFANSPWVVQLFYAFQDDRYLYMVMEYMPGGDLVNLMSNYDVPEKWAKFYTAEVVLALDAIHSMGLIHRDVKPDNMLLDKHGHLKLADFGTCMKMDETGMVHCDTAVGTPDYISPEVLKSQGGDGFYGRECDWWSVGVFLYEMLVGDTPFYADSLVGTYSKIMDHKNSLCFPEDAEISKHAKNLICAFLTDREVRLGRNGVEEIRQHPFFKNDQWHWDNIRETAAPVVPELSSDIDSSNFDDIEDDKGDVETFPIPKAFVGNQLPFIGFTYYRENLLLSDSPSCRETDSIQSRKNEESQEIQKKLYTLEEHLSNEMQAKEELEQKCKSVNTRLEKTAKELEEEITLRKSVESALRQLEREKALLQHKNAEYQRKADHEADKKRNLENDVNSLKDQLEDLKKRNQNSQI

Substance: 4-(1-Amino-2-{[2-(4-bromo- phenyl)-acetyl]-methyl- amino}-ethyl)- N-pyridin-4-yl-benzamide [Compound 457]
- IC50 (PKC epsilon): 5 to 50 µM
- IC50 (human ROCKα/ROCKII mix): 0.5 to 5 µM

Substance: 4-(1-Amino-2-{[2-(4-chloro- phenyl)-3-methyl-butyryl]- methyl- amino}-ethyl)- N-pyridin-4-yl-benzamide [Compound 461]
- IC50 (PKC epsilon): 5 to 50 µM
- IC50 (human ROCKα/ROCKII mix): 0.5 to 5 µM

Substance: 4-(1-Amino-2-{[2-(4-chloro- phenyl)-acetyl]-methyl- amino}-ethyl)- N-pyridin-4-yl-benzamide [Compound 460]
- IC50 (PKC epsilon): 5 to 50 µM
- IC50 (human ROCKα/ROCKII mix): 0.5 to 5 µM

Substance: 4-(1-Amino-2-{[2-(4-fluoro- phenyl)-acetyl]-methyl- amino}-ethyl)- N-pyridin-4-yl-benzamide [Compound 471]
- IC50 (PKC epsilon): 5 to 50 µM
- IC50 (human ROCKα/ROCKII mix): 0.5 to 5 µM

Substance: 4-(1-Amino-2-{[2-(5-bromo- pyridin-3-yl)-acetyl]-methyl- amino}-ethyl)- N-pyridin-4-yl-benzamide [Compound 442]
- IC50 (PKC epsilon): 5 to 50 µM
- IC50 (human ROCKα/ROCKII mix): 0.5 to 5 µM

Substance: 4-(1-Amino-2-{methyl-[2-(2- phenyl-thiazol-4-yl)-acetyl]- amino}-ethyl)- N-pyridin-4-yl-benzamide [Compound 445]
- IC50 (PKC epsilon): 5 to 50 µM
- IC50 (human ROCKα/ROCKII mix): 0.5 to 5 µM

Substance: 4-(1-amino-2- cyclohexylcarbamoyl-ethyl)- N-pyridin-4-yl-benzamide [Compound 172]
- IC50 (PKC epsilon; [1]): 0.5 to 5 µM
- IC50 (human ROCKα/ROCKII mix; [1]): 0.05 to 0.5 µM

Substance: 4-(1-amino-2-benzoylamino-ethyl)- N-pyridin-4-yl-benzamide [Compound 69]
- IC50 (PKC epsilon; [2]): 0.5 to 5 µM
- IC50 (human ROCKα/ROCKII mix; [2]): 0.05 to 0.5 µM

Substance: 4-[1-Amino-2- (benzo[1,3]dioxol-5-yl- ethylcarbamoyl)-ethyl]-N- pyridin-4-yl-benzamide [Compound 296]
- IC50 (PKC epsilon; [1]): 5 to 50 µM
- IC50 (human ROCKα/ROCKII mix; [1]): 0.05 to 0.5 µM

Substance: 4-[1-Amino-2-(1-(R)-p-tolyl- propylcarbamoyl)-ethyl]-N- pyridin-4-yl-benzamide [Compound 220]
- IC50 (PKC epsilon; [1]): 0.5 to 5 µM
- IC50 (human ROCKα/ROCKII mix; [1]): 0.05 to 0.5 µM

Substance: 4-[1-Amino-2-(1-(S)-p-tolyl- propylcarbamoyl)-ethyl]-N- pyridin-4-yl-benzamide [Compound 219]
- IC50 (PKC epsilon; [1]): 0.5 to 5 µM
- IC50 (human ROCKα/ROCKII mix; [1]): 0.05 to 0.5 µM

Substance: 4-[1-Amino-2-(2,4- dimethoxy- benzylcarbamoyl)-ethyl]- N-pyridin-4-yl-benzamide [Compound 241]
- IC50 (PKC epsilon; [1]): 0.5 to 5 µM
- IC50 (human ROCKα/ROCKII mix; [1]): 0.05 to 0.5 µM

Substance: 4-[1-Amino-2-(2-ethoxy- benzylcarbamoyl)-ethyl]- N-pyridin-4-yl-benzamide [Compound 237]
- IC50 (PKC epsilon; [1]): 0.5 to 5 µM
- IC50 (human ROCKα/ROCKII mix; [1]): 0.05 to 0.5 µM

Substance: 4-[1-Amino-2-(2-methoxy- benzylcarbamoyl)-ethyl]- N-pyridin-4-yl-benzamide [Compound 236]
- IC50 (PKC epsilon; [1]): 0.5 to 5 µM
- IC50 (human ROCKα/ROCKII mix; [1]): 0.05 to 0.5 µM

Substance: 4-[1-Amino-2-(3,4-dichloro- 6-methyl-benzylcarbamoyl)- ethyl}-N-pyridin-4-yl- benzamide [Compound 254]
- IC50 (PKC epsilon; [1]): 0.5 to 5 µM
- IC50 (human ROCKα/ROCKII mix; [1]): 0.05 to 0.5 µM

Substance: 4-[1-Amino-2-(4-thiophen-2- yl-benzylcarbamoyl)-ethyl]- N-pyridin-4-yl-benzamide [Compound 235]
- IC50 (PKC epsilon; [1]): 5 to 50 µM
- IC50 (human ROCKα/ROCKII mix; [1]): 0.05 to 0.5 µM

Substance: 4-[1-Amino-2-(benzyl- phenethyl-carbamoyl)-ethyl]- N-pyridin-4-yl-benzamide [Compound 226]
- IC50 (PKC epsilon; [1]): 0.5 to 5 µM
- IC50 (human ROCKα/ROCKII mix; [1]): 0.05 to 0.5 µM

Substance: 4-[1-Amino-2-(methyl- phenylacetyl-amino)-ethyl]- N-pyridin-4-yl-benzamide [Compound 420]
- IC50 (PKC epsilon): 5 to 50 µM
- IC50 (human ROCKα/ROCKII mix): 0.5 to 5 µM

Substance: 4-[1-Amino-2-(phenethyl- phenyl-carbamoyl)-ethyl]-N- pyridin-4-yl-benzamide [Compound 286]
- IC50 (PKC epsilon; [1]): 0.5 to 5 µM
- IC50 (human ROCKα/ROCKII mix; [1]): 0.05 to 0.5 µM

Substance: 4-[1-amino-2-(2-morpholin- 4-yl-ethylcarbamoyl)-ethyl]- N-pyridin-4-yl-benzamide [Compound 177]
- IC50 (PKC epsilon; [1]): 5 to 50 µM
- IC50 (human ROCKα/ROCKII mix; [1]): 0.05 to 0.5 µM

Substance: 4-[1-amino-2-(2-pyrazol-1-yl- ethylcarbamoyl)-ethyl]-N- pyridin-4-yl-benzamide [Compound 312]
- IC50 (PKC epsilon; [1]): 0.5 to 5 µM
- IC50 (human ROCKα/ROCKII mix; [1]): 0.05 to 0.5 µM

Substance: 4-[1-amino-2-(4-methyl- cyclohexylcarbamoyl)-ethyl]- N-pyridin-4-yl-benzamide [Compound 173]
- IC50 (PKC epsilon; [1]): 0.5 to 5 µM
- IC50 (human ROCKα/ROCKII mix; [1]): 0.05 to 0.5 µM

Substance: 4-[1-amino-2-(N′-butyl- hydrazinocarbonyl)-ethyl]-N- pyridin-4-yl-benzamide [Compound 324]
- IC50 (PKC epsilon; [1]): 0.5 to 5 µM
- IC50 (human ROCKα/ROCKII mix; [1]): 0.05 to 0.5 µM

Substance: 4-[1-amino-2-(cyclopropyl- methylcarbamoyl)-ethyl]-N- pyridin-4-yl-benzamide [Compound 171]
- IC50 (PKC epsilon; [1]): 0.5 to 5 µM
- IC50 (human ROCKα/ROCKII mix; [1]): 0.05 to 0.5 µM

Substance: 4-{1-Amino-2- [(benzo[1,3]dioxol-5- ylmethyl)-carbamoyl]-ethyl}- N-pyridin-4-yl-benzamide [Compound 245]
- IC50 (PKC epsilon; [1]): 0.5 to 5 µM
- IC50 (human ROCKα/ROCKII mix; [1]): 0.05 to 0.5 µM

Substance: 4-{1-Amino-2-[2-(9H-fluoren- 2-yl)-ethylcarbamoyl]-ethyl}- N-pyridin-4-yl-benzamide [Compound 318]
- IC50 (PKC epsilon; [1]): 5 to 50 µM
- IC50 (human ROCKα/ROCKII mix; [1]): 0.05 to 0.5 µM

Substance: 4-{1-Amino-2-[(2-1H-indol-3- yl-acetyl)-methyl- amino]-ethyl}- N-pyridin-4-yl-benzamide [Compound 443]
- IC50 (PKC epsilon): 5 to 50 µM
- IC50 (human ROCKα/ROCKII mix): 0.5 to 5 µM

Substance: 4-{1-Amino-2-[(2- benzo[1,3]dioxol-5-yl- acetyl)-methyl-amino]-ethyl}- N-pyridin-4-yl-benzamide [Compound 432]
- IC50 (PKC epsilon): 5 to 50 µM
- IC50 (human ROCKα/ROCKII mix): 0.5 to 5 µM

Substance: 4-{1-Amino-2-[(2- benzo[b]thiophen-3-yl- acetyl)-methyl- amino]-ethyl}- N-pyridin-4-yl-benzamide [Compound 444]
- IC50 (PKC epsilon): 5 to 50 µM
- IC50 (human ROCKα/ROCKII mix): 0.5 to 5 µM

Substance: 4-{1-Amino-2-[(2- cyclopentyl-2-phenyl- acetyl)-methyl- amino]-ethyl}- N-pyridin-4-yl-benzamide [Compound 455]
- IC50 (PKC epsilon): 5 to 50 µM
- IC50 (human ROCKα/ROCKII mix): 5 to 50 µM

Substance: 4-{1-Amino-2-[(2-biphenyl-4- yl-acetyl)-methyl- amino]-ethyl}- N-pyridin-4-yl-benzamide [Compound 436]
- IC50 (PKC epsilon): 5 to 50 µM
- IC50 (human ROCKα/ROCKII mix): 0.5 to 5 µM

Substance: 4-{1-Amino-2-[(3-methyl- cyclohexanecarbonyl)-amino]-ethyl}- N-pyridin-4-yl-benzamide [Compound 45]
- IC50 (PKC epsilon; [2]): 0.5 to 5 µM
- IC50 (human ROCKα/ROCKII mix; [2]): 0.5 to 5 µM
